Test results taken from PubChem BioAssay (NCI).
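Method: 48-hour compound exposure of cells in 96-well plates, five concentrations, linear interpolation of endpoints. TGI: concentration producing complete growth inhibition.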

Tests used:
Experiment in all cases: NCI tumour cell line growth inhibition, 48 h
A498 renal = system: A498 renal
A549 NSCLC = system: A549 NSCLC
BT-549 breast = system: BT-549 breast
CCRF-CEM leukemia = system: CCRF-CEM leukemia
HCC-2998 colon = system: HCC-2998 colon
HS 578T breast = system: HS 578T breast
K-562 leukemia = system: K-562 leukemia
KM12 colon = system: KM12 colon
MALME-3M melanoma = system: MALME-3M melanoma
MCF7 breast = system: MCF7 breast
NCI-H226 lung = system: NCI-H226 lung
NCI-H460 lung = system: NCI-H460 lung
SF-295 CNS = system: SF-295 CNS
SF-539 CNS = system: SF-539 CNS
SN12C renal = system: SN12C renal
SNB-75 CNS = system: SNB-75 CNS
SW-620 colon = system: SW-620 colon
T-47D breast = system: T-47D breast
TK-10 renal = system: TK-10 renal
UACC-257 melanoma = system: UACC-257 melanoma

SMILES | TGI (A498 renal) | TGI (A549 NSCLC) | TGI (BT-549 breast) | TGI (CCRF-CEM leukemia) | TGI (HCC-2998 colon) | TGI (HS 578T breast) | TGI (K-562 leukemia) | TGI (KM12 colon) | TGI (MALME-3M melanoma) | TGI (MCF7 breast) | TGI (NCI-H226 lung) | TGI (NCI-H460 lung) | TGI (SF-295 CNS) | TGI (SF-539 CNS) | TGI (SN12C renal) | TGI (SNB-75 CNS) | TGI (SW-620 colon) | TGI (T-47D breast) | TGI (TK-10 renal) | TGI (UACC-257 melanoma)
CSc1ncc2c(C#N)c3sc4ccccc4n3c(=O)c2n1 | > 100 µM | > 100 µM | > 100 µM | > 100 µM | > 100 µM | 51.3 µM | > 100 µM | > 100 µM | > 100 µM | > 100 µM | > 100 µM | > 100 µM | > 100 µM | > 100 µM | > 100 µM | > 100 µM | > 100 µM | > 100 µM | > 100 µM | > 100 µM
CC(=O)NC(CS/N=N/c1nc[nH]c1C(N)=O)C(=O)O (stereo not given) | > 100 µM | > 100 µM | > 100 µM | > 23.1 µM | > 27.9 µM | > 100 µM | > 100 µM | > 45.3 µM | > 29.3 µM | > 100 µM | > 100 µM | > 100 µM | > 100 µM | > 100 µM | > 55.9 µM | > 100 µM | > 100 µM | > 100 µM | > 100 µM | > 100 µM
O=C(CCC(NC(=O)OCc1ccccc1)C(=O)OCc1ccccc1)Nc1ccc(OCc2ccccc2)cc1 (stereo not given) | > 10 µM | > 31.6 µM | > 10 µM | > 31.6 µM | > 31.6 µM | > 31.6 µM | > 31.6 µM | > 31.6 µM | > 31.6 µM | 19.9 µM | > 31.6 µM | > 31.6 µM | > 31.6 µM | > 31.6 µM | > 31.6 µM | > 31.6 µM | > 31.6 µM | > 31.6 µM | > 31.6 µM | > 31.6 µM
